Results on one compound are retold here after patent US8039501B2, “Synephrine derivatives useful as anti-inflammatory agents” (Universiteit Gent, priority 2005, dated 2011).

The test system of series [1] is multiple myeloma cells U266. Nature of the series: MTT test, cell viability of U266 cells. The conditions noted are these: Homo sapiens, U-266; 10^−4M; serum-free medium; FIG. 2A; read-out: Cell killing / reduction of viability of U266 cells. The series is classed as cell-based, human. The method, then:
(§1) The MTT test is a standard assay addressing cell toxicity of a compound. It is based on the principle that after 3-4 hours of cell incubation with MTT (3-(4,5-dimethylthiazole-2-yl)-2,5-diphenyl tetrazolium bromide) so-called purple formazan crystals develop in living and early apoptotic cells. Dead cells don't produce formazan crystals.
(§2) Different cell lines were tested. Unless indicated differently, A549 human lung epithelial cells (derived from lung carcinoma) and L929sA murine fibroblast cells were cultured in DMEM with 10% FCS, 100 U/ml penicillin and 100 μg/ml streptomycin. Unless indicated differently, the human multiple myeloma cell lines L363, U266 and MM1.S were cultured in RPMI 1640 with Glutamax-I, supplemented with 10% FCS, 100 U/ml penicillin and 100 μg/ml streptomycin. Cells were seeded at 5000 cells/well (for adherent A549 and L929sA cells) or at 10000 cells/well (for the multiple myeloma lines in suspension) in 96 well plates. Cells were incubated in the presence of the respective synephrine compounds or vehicle (EtOH; for control test) in a final volume of 0.2 ml for 24 or 48 hours at 37° C. Subsequently, 20 μl of MTT solution (5 mg/ml in phosphate-buffered saline) was added to each well. After 4 hours incubation at 37° C., 80 μl of the extraction buffer (10% SDS, 0.01 M HCl) was added. After overnight incubation at room temperature, the optical densities at 590 nm were measured. Results are illustrated in FIGS. 2 to 6 and are expressed as percentage of viable cells as compared to vehicle-treated controls.
(§3) The MTT test was further extended to include alternative synephrine derivatives and a range of multiple myeloma cell lines for which the results are illustrated by FIGS. 3A, 3B and 4A. Human multiple myeloma cell lines L363, U266 and MM1.S were cultured in RPMI 1640 with Glutamax-I, supplemented with 10% FCS, 100 U/ml penicillin and 100 μg/ml streptomycin. Cells were seeded at 10000 cells/well in 96 well plates. Cells were incubated in the presence of test compounds or vehicle in a final volume of 0.2 ml for 24 or 48 hours at 37° C. The test compounds included in the test were the synephrine derivatives CpdA, Naphth, Benz and Isobut, and DEX as a comparative example. Subsequently, 20 μl of MTT solution (5 mg/ml in phosphate-buffered saline) was added to each well. After 4 hours incubation at 37° C., 80 μl of the extraction buffer (10% SDS, 0.01 M HCl) was added. After 48 hours incubation at room temperature, the optical densities at 590 nm were measured. Results are expressed as percentage of viable cells as compared to vehicle-treated controls.

Another series has as its system MM1.S cell line. Nature of the series: MTT test, cell viability of MM1.S cells. As to conditions: Homo sapiens, MM1.S; 10^−4 M; 10% FCS; FIG. 4A; read-out: Inhibition of MM1.S cell viability. It is filed as cell-based, human. The method, then:
as §1, §2, §3

The nature of series [2]: MTT test, cell viability of L929sA fibroblasts. As to conditions: mouse, L929sA fibroblast cells; 10^−4 M; 48 hours; FIG. 5B; read-out: Block of L929sA cell viability. The series is classed as cell-based, murine. The method, then:
as §1, §2
In a further MTT test, the activity of the synephrine derivatives on the inhibition of cell viability of non-immune cells was measured. […] Tests were performed for 24 hours and for 48 hours. The results are illustrated by FIGS. 5A and 5B for L929 cells, and by FIGS. 6A and 6B for A549 cells. It was observed that CpdA at 10^−5 M blocked cell viability of L929sA and A549 for not more than 10%.

In a further series the test system is MCF7 breast cancer cells. The conditions noted are these: 10^−6 M. The method, then:
In further experiments, nylon arrayfilter hybridization experiments were performed. cDNA array analyses were carried out according to the instructions of the manufacturer (SuperArray Simplicity GEArray™ KIT) on the cDNA arrays cancer pathway finder and stress and toxicity array. Total RNA, obtained by the protocol as described herein above, was used as a template for [α−^33P]-cDNA probe synthesis using the following steps:
A second array hybridization experiment was performed on Human Stress and Toxicity Pathway Finder GEarray Q series. The same protocol was followed as for the array hybridization experiment on the Human Cancer Pathway Finder described herein above.

For series [3], the system named is B16BL6 melanoma, PG19 melanoma and Lewis Lung Carcinoma. Nature of the series: In vivo melanoma model, subcutaneous tumors in mice. The conditions noted are these: eight days of treatment with 200 μg; PBS-treated 1.51+/−0.13 g. The method, then: In vivo melanoma model • Cells of B16BL6 melanoma, PG19 melanoma and Lewis Lung Carcinoma are kept in culture in DMEM supplemented with fetal calf serum, antibiotics and L-glutamine. Cells are harvested, washed three times in LPS-free PBS, and brought to a density of 6×10^6/ml (B16BL6) or 20×10^6/ml (PG19, EL4 and LLC). 100 μl of the cell suspension is injected subcutaneously into shaven, right hind limbs of the mice. When the tumors reach a size of 50-70 mm^2, daily treatment is started with dexamethasone (DEX), hydrocortisone (HYDRO), compound A (CpdA) or its analogues (intraperitoneally (i.p.) or in drinking water). DEX, HYDRO are diluted in PBS; CpdA is diluted in 20% ethanol. The smaller and larger diameters of the tumor are measured daily with an electronic caliper. Tumor size index (TSI) is defined in mm^2 as (a)×(b), (a) being the longest diameter of the tumor and (b) the diameter perpendicular to (a). […] Each mouse receives daily either PBS or a specific dose of DEX, ranging from 5 μg to 200 μg. […]. […] Toxicity and efficacy of CpdA and analogues will be evaluated.

A short description of series [4]: Serum ELISA of osteoclast and osteoblast markers in DBA/1 mice. As to conditions: 62.5 μg daily, 8 day treatment; FIG. 21A.
Text: DBA/1 mice—Male 8- to 12-wk-old DBA/1 mice were purchased from Janvier and housed following institutional guidelines. All animal procedures were approved by the institutional animal care and ethics committee. […] The human IL-6 and IL-8 cytoset were purchased from BioSource International, Inc. For the detection of TRAP5b in DBA/1 mice serum we used the Mouse TRAP Assay, purchased from Immunodiagnostic systems limited. The osteocalcin EIA kit was purchased from Biomedical Technologies, Inc. All assays were performed according to the manufacturer's instructions.

Consider `C[C@@H]1C[C@H]2[C@@H]3CCC4=CC(=O)C=C[C@]4(C)[C@@]3(F)[C@@H](O)C[C@]2(C)[C@@]1(O)C(=O)CO` [DEX, dexamethasone, reference compound], for which the figures for the cytotoxicity at 100 µM (in series [1]; with MM1.S cell line) were 10% and 30%, respectively. Further, the cytotoxicity at 48 h in series [2] worked out at 30%. For the same compound, in the series with MCF7 breast cancer cells, the “Levels of cyp1A1, FMO1, HMOX2, ATM, bcl2L1, casp1” value is listed as “increases levels”. In series [3], the “Mean weight of tumors” value was 0.59 ± 0.04 g. The “TRAP5b in mouse serum” value in series [4] is on record as “increase of TRAP5b in mouse serum”.
